Key:
[1] = system: wildtype and LMNA^G609G/G609G MEFs; assay: Senescence-associated beta-galactosidase staining of MEFs; format: cell-based, mouse; details: vs control cells
Procedure: In the step of determining the senescence lever and optimal concentration, the primary mouse embryonic fibroblasts (MEFs) at passage 3 were seeded and cultured in chamber slides. The slides were washed twice with ice-cold phosphate buffered saline (PBS). Using senescence-associated beta-galactosidase staining kit, the cells were fixed for 10 minutes with provided paraformaldehyde and washed twice with PBS. The slides were then incubated with the staining solution at 37° C. overnight. On the following day, the slides were washed twice with PBS and mounted with 40% glycerol in PBS. The stained cells were observed under a light microscope. Senescent cells were stained blue while proliferating cells were unstained. The percentage of senescent cells was quantified by counting the number of stained and unstained cells.

Caenorhabditis elegans = assay: Lifespan analysis of Caenorhabditis elegans; format: in vivo; details: C. elegans
Procedure: In step of analyzing the lifespan of Caenorhabditis elegans, for chemical treatment in Caenorhabditis elegans, chemical was added to the nematode growth medium (NGM) dishes. The NGM with agarose was autoclaved and then cooled down to below 65° C. The different concentrations of chemical were added to NGM. The NGM was then poured into 60 mm dishes and incubated at room temperature overnight. The solidified NGM dishes were stored at 4° C. Escherichia coli OP50 strain was used as the food source for C. elegans. A single colony of OP50 was incubated in 200 mL of lysogeny broth (LB) medium at 37° C. overnight. The OP50 was then killed by incubation at 65° C. for […]. The dead OP50 was spread throughout the surface of the NGM dishes. The NGM dishes with dead OP50 and CBD were stored at 4° C. for up to 2 weeks. The synchronization of C. elegans was carried out by the bleaching method. 20 L4 larvae were picked to each 60 mm dish with different concentrations of chemical and cultured at 20° C. They were monitored every day, and the number of living, dead and missing C. elegans were recorded. The C. elegans were transferred to fresh Petri dishes every 2 days to separate the target worms from their offspring and to ensure if they had enough food source. 10-20 μM of CBD was identified to be the optimal dosage for extending the lifespan of C. elegans.

[2] = system: skin of LMNA^G609G/G609G mice; assay: Histology study of mouse skin (hematoxylin and eosin staining); format: in vivo; details: CBD treated LMNA^G609G/G609G mice
Procedure: (§1) In the step of study the histology of mouse skin and liver, the mice were sacrificed by cervical dislocation under anesthesia by intraperitoneal (IP) injection of 100 mg/kg ketamine and 16 mg/kg xylazine in sterile water. Major organs, including skin, muscle, intestine, kidney, spleen, liver, lung, heart, aorta, were collected. Half of the tissues were snap-frozen in liquid nitrogen and stored at −80° C. for extraction of proteins and RNA. Another half of the tissues were fixed in 4% paraformaldehyde (PFA) in PBS and shook at 4° C. overnight. For paraffin wax sections, the fixed tissues were incubated in 70% ethanol and shook at 4° C. overnight. Followed by stepwise dehydration of tissues in 90%, 95%, 100%, and 100% ethanol for 1 hour each. Then the tissues were incubated in 50% xylene and 50% ethanol for 30 to 40 minutes and transferred to 100% xylene for 10 to 15 minutes. The tissues were then incubated in wax for 30 minutes and transferred to new wax for 3 times. Then the tissues were placed in the wax inside a vacuum chamber overnight. On the following day, the tissues were embedded into paraffin blocks and sectioned into slides with 6 μm in thickness. After the tissue sections were dried, they were incubated in xylene solution twice each for 5 minutes. […]

[3] = system: liver of LMNA^G609G/G609G mice; assay: Senescence-associated beta-galactosidase staining of mouse liver; format: in vivo; details: CBD treated LMNA^G609G/G609G mice
Procedure: as §1

[4] = system: ATF5, CEBPα and TRIB3 in skin of LMNA^G609G/G609G mice; assay: Immunofluorescence staining of mouse skin; format: in vivo; details: CBD treated premature aging mice
Procedure: The tissue sections were washed twice with PBS and incubated in PBSTr (0.1% Triton X-100 in PBS) for 10 minutes. Then the cells were blocked with 5% fetal bovine serum (FBS) in PBSTr for 1 hour at room temperature. Primary antibodies diluted in 5% FBS in PBSTr were added and incubated at 4° C. overnight. On the following day, the cells were washed three times using PBSTr, incubation for 10 minutes each time. Secondary antibodies diluted in 5% FBS in PBSTr were added and incubated at room temperature for 1 hour. The cells were again washed three times using PBSTr, followed by PBS for two times. The slides were mounted with SlowFade Gold antifade reagent. Then the slides were ready to be analyzed under a confocal microscope.

[5] = system: p21, BCL-w, BCL-xL, MCL-1, TRIB3, p-akt in MSCs; assay: Western blotting in irradiated and non-irradiated MSCs; format: cell-based, human; details: 6-hour 10 μM CBD
Procedure: FIG. 12a-b illustrates the results of senolytic effect of CBD in mesenchymal stem cells (MSCs) upon irradiation induced senescence.
The relative cell viability was calculated by normalizing each sample to non-irradiated control sample. […] As CBD selectively killed senescent MSCs while keeping proliferating MSCs unharmed, it was discovered to be a novel senolytic. Referring to FIG. 12b, Western blotting was carried to investigate the mechanism behind CBD's senolytic effect. […] While as proliferating and senescent MSCs responded differently in phosphorylated akt level.

C=C(C)[C@@H]1CCC(C)=C[C@H]1c1c(O)cc(CCCCC)cc1O [CBD, Cannabidiol]
senescence levels ([1]; 10 μM CBD, 8 days): decrease in senescence levels
senescence levels (toxicity effect) ([1]; 50 μM CBD, 4 days): increase in senescence levels
maximum lifespan increase (Caenorhabditis elegans; 10 or 20 μM CBD): 8-12.5%
median lifespan increase (Caenorhabditis elegans; 10 or 20 μM CBD): 55-61.5%
optimal dosage for extending the lifespan (Caenorhabditis elegans; CBD in NGM dishes, 20° C.): 10 to 20 µM
decrease of hair follicle density [2]: rescued
loss of skin adipose layer [2]: rescued
increase of senescent cells in liver [3]: rescued
ATF5 protein level decrease in skin [4]: reversed
CEBPα protein level decrease in skin [4]: reversed
TRIB3 protein level decrease in skin [4]: reversed
BCL-w level ([5]; irradiated MSCs): downregulated
BCL-xL level ([5]; irradiated MSCs): downregulated
MCL-1 level ([5]; irradiated MSCs): downregulated
p21 level ([5]; irradiated MSCs): significantly downregulated
TRIB3 expression level (downregulated in senescent MSCs) ([5]; irradiated senescent MSCs): rescued
p-akt level ([5]; non-irradiated MSCs): significantly upregulated

From patent US20220354805A1, “Cannabidiol (CBD) as Chemical for Treating Aging-related Degenerative Diseases and Promoting Health Aging” (Hemix Biotech Limited, priority 2021, published 2022)
